From US10610514B2, “Composition comprising compound inhibiting interactions of MBD2 and P66α for anti-metastasis and prevention and treatment of cancer disease” (Industry-University Cooperation Foundation Hanyang …, priority 2016, dated 2020)
Like-named read-outs stand apart in the source and are kept apart here.

Legend:
[1] = tested on: HCT116 and MDA-MB-231 cell lines; assay: Western blotting of EMT-associated marker proteins; format: cell-based; conditions: 10 μM, 48 hours
Source text: Therefore, the compounds of Formulas 1 and 2 according to the present invention may be excellent leading materials in the development of therapeutic agents for metastasis.

[2] = tested on: MDA-MB-231, HCT116, MEL and HL60 cell lines; assay: In vitro cancer cell migration and invasion, Trans-well insert; format: cell-based; conditions: 10 μM, in comparison with controls, all cell lines
Experimental: Accordingly, to confirm whether EMT and metastasis are inhibited by the treatment with the compounds of Formulas 1 and 2, in vitro cancer cell migration and invasion abilities were analyzed, and the result is shown in FIGS. 3A and 3B below.

[3] = tested on: target gene expression of the CP2c transcription factor complex; assay: Luc reporter assay, GATA1 enhancer, 293T cells transduced with CBP complex protein overexpression vectors; format: cell-based
Experimental: Therefore, Luc reporter assay was carried out to analyze whether a decrease in the target gene expression of the CP2c transcription factor complex due to MBD2 or p66α overexpression is restored by the treatment with a compound for inhibiting the interaction between the MBD2 and p66α selected in the previous step (FIGS. 2A and 2B). Here, as a CP2c transcription factor target sequence that controls Luc reporter gene expression, a GATA1 enhancer was used, and 293T cells were transduced with various combinations of CBP complex protein overexpression vectors and then used for analysis.

[4] = tested on: various cancer cell lines; assay: MTT assay cell viability, all cancer cell lines; format: cell-based
Experimental: (§1) Lymphoid leukemia cell lines (Raji, Molt4, IM9, Jurkat, CCRF-CEM, and Daudi), leukemia cell lines (KCL22, MEL, THP-1, HL60, HEL, U937, KG-1, and K562), and solid tumor cell lines (HCT116 colorectal cancer cell line, BEAS2B lung epithelial cell line, 293T fetus kidney epithelial cell line, Hep3B liver cancer cell line, MCF7 and MDA-MB-231 breast cancer cell lines, MCF10A breast epithelial cell line, and U373MG brain tumor cell line) were treated with a compound at different concentrations (0, 1, 10, 100, 1,000, and 10,000 μM), cultured for 4 days, and subjected to MTT assay every 24 hours to measure cell viability. 48 hours after the treatment with the compound, a morphological change of the cells was observed, and cell images were taken. IC50 values caused by the treatment with each compound were calculated using the Graph Prism Pad 6 program.

MEL cell line [5] = assay: Leukemia cell line-implanted animal model (MEL cell line intravenously injected into immunodeficient mice); format: in vivo
Source text: The result is shown in FIGS. 9A, 9B, 9C, 9D, 9E, 9F, 9G, 9H, 9I and 9J below.
However, a white blood cell level was reduced due to the treatment with the compound at a slightly higher concentration, but the histological characteristics of the major organs as well as the overall hematological characteristics were normal (FIGS. 9D and 9E).
Meanwhile, to confirm whether the compound of Formula 1 can treat tumors generated in the animal models, the MEL cell line was intravenously injected, after 7 days, the compound of Formula 1 was intravenously injected five times at intervals of three days, and then, on the 21th day, the mice were sacrificed to be subjected to analysis by the above-described method (FIG. 9F).

[6] = tested on: lymphoid leukemia cell lines (Raji, Molt4, IM9, Jurkat, CCRF-CEM, and Daudi); assay: MTT assay cell viability, lymphoid leukemia cell lines; format: cell-based; conditions: average
Experimental: as §1

[7] = tested on: leukemia cell lines (KCL22, MEL, THP-1, HL60, HEL, U937, KG-1, and K562); assay: MTT assay cell viability, leukemia cell lines; format: cell-based
Experimental: as §1

MEL cells = assay: Western blotting of cell cycle- and apoptosis-associated marker proteins in MEL cells; format: cell-based, murine
Source text: In addition, as a western blotting result to show the change in the expression of cell cycle-associated marker proteins according to the concentration and time of the treated compound of Formula 1, it was confirmed that all activities of cyclin/CDK controlling the checkpoints of the cell cycle were decreased. Therefore, referring to FIG. 13, it was seen that overall progression of the cell cycle was inhibited by the treatment with the compound of Formula 1, and aneuploidy and cell death were induced.

MEL cell line [8] = assay: Cell cycle analysis by FACS and karyotype analysis of MEL cells; format: cell-based, murine
[9] = tested on: solid tumor cell lines (HCT116, BEAS2B, 293T, Hep3B, MCF7, MDA-MB-231, MCF10A, U373MG); assay: MTT assay cell viability, solid tumor cell lines; format: cell-based; conditions: average
Experimental: as §1

[10] = dosing started 7 days after MEL injection, day 21
[11] = 16.5 μM and 40 μM, western blotting over time

With `CC(C)(C)OC(=O)N1CC[C@@H](CC(=O)CN)C1` [Formula 2] the “expression of epithelial cell marker proteins (β-catenin, E-cadherin)” value [1] was “decreased”, the “expression of mesenchymal cell marker proteins (Snail, slug, N-cadherin)” value [1] was “significantly decreased” and the “effect on migration and invasion abilities” value [2] was “significant inhibitory effect”. The “restoration of the inhibition of target gene expression by MBD2 overexpression” value [3] was “restored”, the “restoration of the inhibition of target gene expression by p66α overexpression” value [3] was “did not restore” and the “IC50 values (in words)” value ([4]; uniform in all cancer cell lines) was “slightly higher IC50 values”. For the same compound, the “growth and cell death of cell lines” value ([4]; various cancer cell lines) was “effects of inhibiting the growth and inducing cell death”.

With `NCC(=O)NC[C@H]1COc2ccccc2O1` [Formula 1] the “side effects in normal tissue/blood” value (MEL cell line [5]; MEL-implanted mice) was “no side effects”, the “histological characteristics of the major organs and overall hematological characteristics” value (MEL cell line [5]; dosing from MEL injection, day 16) was “normal” and the “histological characteristics of the major organs and overall hematological characteristics” value (MEL cell line [5]; [10]) was “normal”. For the same compound, the “tumor cells in the blood, spleen and liver” value (MEL cell line [5]; [10]) was “no tumor cells”, the “splenomegaly caused by the MEL cells” value (MEL cell line [5]; dosing started 7 days after MEL injection, i.v. five times at intervals of three days, day 21, concentration-dependent) was “disappeared” and the “splenomegaly caused by the MEL cells” value (MEL cell line [5]; i.v. 12.2, 24.4, 48.8 μg/Kg five times at intervals of three days from MEL injection, day 16, concentration-dependent) was “disappeared”. The “tumor cells in the blood, spleen and liver” value (MEL cell line [5]; i.v. five times at intervals of three days from MEL injection, day 16) was “no tumor cells”, the “white blood cell level” value (MEL cell line [5]; slightly higher concentration, day 16) was “reduced” and the IC50 [6] was 213 µM. For the same compound, the “expression of epithelial cell marker proteins (β-catenin, E-cadherin)” value [1] was “decreased”, the “expression of mesenchymal cell marker proteins (Snail, slug, N-cadherin)” value [1] was “significantly decreased” and the IC50 ([7]; average, read-out: IC50 average) was 50 µM. For the same compound, the IC50 ([7]; range over cell lines, read-out: IC50 values) was 6 to 218 µM, the “effect on migration and invasion abilities” value [2] was “significant inhibitory effect” and the apoptosis-associated caspases (MEL cells; [11]) was “activated”. The “expression of the apoptosis inhibition marker” value (MEL cells; [11]) was “decreased”, the “expression of the apoptosis promotion marker” value (MEL cells; [11]) was “increased” and the “activities of cyclin/CDK controlling the checkpoints of the cell cycle” value (MEL cells; western blotting, by concentration and time) was “decreased”. For the same compound, the “restoration of the inhibition of target gene expression by MBD2 overexpression” value [3] was “did not restore”, the “restoration of the inhibition of target gene expression by p66α overexpression” value [3] was “restored” and the G0/G1 group (MEL cell line [8]; FACS) was “reduction”. For the same compound, the G2/M group (MEL cell line [8]; FACS) was “increase”, the aneuploidy cell group (MEL cell line [8]; FACS) was “significant increases” and the “subG1 (cell group dying by apoptosis)” value (MEL cell line [8]; FACS) was “significant increases”. For the same compound, the aneuploidy (MEL cell line [8]; FACS after synchronization at G1/S by thymidine double block) was “remarkably induced”, the “chromosomes (karyotype analysis)” value (MEL cell line [8]; karyotype analysis) was “abnormally increased” and the IC50 [9] was 1.78 mM.
